Data set [1] can be described thus: Metabolism and pharmacokinetics of camptothecin in human plasma. It is filed as in vitro ADME.
Data set [2] can be described thus: Closed lactone form of CPT in plasma after intrastomach administration in mice. Type of data set: in vivo.
Data set [3] in a line: Closed lactone form of CPT in plasma after oral administration in humans. It is filed as in vivo.
The nature of data set [4]: Plasma level of closed lactone form of 9NC after i.s. administration. It is filed as in vivo, mice.
Another data set deals with human malignancies. Description: Clinical responses in Phase I clinical trial patients. The conditions noted are these: in humans, oral. It is filed as in vivo. An excerpt:
Clearly, there is a pressing need for a modification which will slow and delay the lactone ring opening upon its entrance into the blood circulation.

For the next data set, the system named is human tumor xenografts. Particulars: in mice; cited from earlier work.
Data set [5] in a line: Plasma level of closed lactone form of 9NC after oral administration to Phase I patients. It is filed as in vivo, humans. Particulars: after oral administration to Phase I clinical trial patients, on average.
For data set [6] the following is noted: sodium carboxylate salt vs closed lactone camptothecin; cited from earlier work.

Regarding 20(S)-camptothecin [CPT], in data set [1], the “half-life time of the drug with lactone intact” value was determined as 30 min and the metabolite detected result is on record as “the only metabolite detected is the ring-opened sodium carboxylate salt”. Moreover, the “closed lactone form, share of the area under the curve” value in data set [2] is “approximately 54%”. In data set [3], the “closed lactone form, share of the area under the curve” value is reported as “about 0.4%”.
`CC[C@@]1(O)C(=O)OCc2c1cc1n(c2=O)Cc2cc3c([N+](=O)[O-])cccc3nc2-1` [9NC, 9-nitrocamptothecin]: the “share of drug present in the plasma in the closed lactone form” value in data set [4] is given as 57%; in data set [5] it was about 3%. The complete tumor regressions is on record as 2/32 with human malignancies and 32/32 in the data set with human tumor xenografts. For the same molecule, the “potency relative to CPT against human tumor xenografts” value in the data set on human tumor xenografts is 2-3 times.
As for `CC[C@@](O)(C(=O)[O-])c1cc2n(c(=O)c1CO)Cc1cc3ccccc3nc1-2.[Na+]` [sodium carboxylate salt], in data set [6], the “potency relative to native camptothecin with the closed lactone ring intact” value is 10%.

Values taken from patent publication US6699875B2, “Cascade esters of camptothecins and methods of treating cancer using these compounds” (priority 2002, dated 2004).
